Data reported in patent publication US10501518B2 (priority 2013, dated 2019).
Where two headings read alike, the source gives them in different places. Starred links: 1 amine or outer side, 2 acyl side, 3 side chain; linkers in the order of their positions; H or OH if unused. Non-standard residues stand in square brackets, D forms with d. Residues, ends and D or L forms follow the SMILES beside them. *: point of attachment. NH(1S,2S-2-CONH2-cPent) = NC(=O)[C@H]1CCC[C@@H]1N*; X12 = O=C([C@H]1CCC[C@@H]1N[*:1])[*:2]; X13 = O=C([C@H]1CNC[C@@H]1N[*:1])[*:2]; ACPC(1S,2S) = N[C@H]1CCC[C@@H]1C(=O)*; Aib = CC(C)(N)C(=O)O

Tests used:
Assay type in all cases: cell-based
[1] = target: T1, WT human PTHR-1 (Homo sapiens, UniProt Q03431); experiment: cAMP GloSensor dose-response in GP-2.3 cells expressing human PTHR-1; settings: for cAMP (hPTHR-1) Max: Table 1, luminescence counts per second relative to PTH(1-34); for cAMP (hPTHR-1) Max / Max: 12-16 minutes after ligand addition; for Max: Table 6, GP-2.3 cells, mean ± SEM
T1 construct: bioactivity of the resulting compound in full-length hPTHR-1 and a truncated version; expressed in transfected cells
T1 sequence (Q03431 27-593): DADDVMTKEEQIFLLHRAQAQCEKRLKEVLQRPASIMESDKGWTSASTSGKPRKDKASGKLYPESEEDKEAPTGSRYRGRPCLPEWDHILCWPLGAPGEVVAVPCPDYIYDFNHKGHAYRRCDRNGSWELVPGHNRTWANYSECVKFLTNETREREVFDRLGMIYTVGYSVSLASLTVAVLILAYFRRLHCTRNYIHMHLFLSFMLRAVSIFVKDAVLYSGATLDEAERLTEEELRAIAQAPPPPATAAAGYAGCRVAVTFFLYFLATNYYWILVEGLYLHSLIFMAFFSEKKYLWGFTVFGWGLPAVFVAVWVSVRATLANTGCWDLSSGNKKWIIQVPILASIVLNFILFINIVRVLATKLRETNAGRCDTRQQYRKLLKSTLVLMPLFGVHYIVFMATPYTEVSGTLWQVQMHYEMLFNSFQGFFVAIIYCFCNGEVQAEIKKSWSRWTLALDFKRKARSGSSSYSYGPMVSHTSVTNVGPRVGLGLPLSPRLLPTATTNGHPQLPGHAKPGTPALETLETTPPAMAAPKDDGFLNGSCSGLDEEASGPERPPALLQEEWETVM
Procedure: FIGS. 8A, 8B, and 8C constitute a series of graphs depicting cAMP responses in GP-2.3 cells expressing wild-type human parathyroid hormone receptor 1 (PTHR-1-WT). […] Data are means (±SEM) of n>4 experiments, each performed in duplicate.
(§1) For cAMP dose-response assays, monolayers of confluent HEK 293 cells were pre-incubated with buffer containing d-luciferin (0.5 mM) in 96 well plates at room temperature until a stable baseline level of luminescence was established (30 min). Varying concentrations of agonist were then added, and the time course of luminescence response was recorded using a Perkin Elmer plate reader following α/β-peptide addition.

[2] = target: T2, PTHR (Homo sapiens, UniProt Q03431); experiment: cAMP induction potency, N-terminal modifications and cyclic constraints (Tables 9, 10, 13); settings: Table 10
T2 construct: expressed in transfected cells
T2 sequence (Q03431 27-593): T1 sequence (Q03431 27-593)

[3] = target: T3, WT rat PTHR-1 (Rattus norvegicus, UniProt P25961); experiment: cAMP GloSensor dose-response in GR-35 cells expressing rat PTHR-1; settings: Table 7; GR-35 cells, 12-16 minutes after ligand addition; mean ± SEM
T3 construct: expressed in transfected cells
T3 sequence (P25961 27-591): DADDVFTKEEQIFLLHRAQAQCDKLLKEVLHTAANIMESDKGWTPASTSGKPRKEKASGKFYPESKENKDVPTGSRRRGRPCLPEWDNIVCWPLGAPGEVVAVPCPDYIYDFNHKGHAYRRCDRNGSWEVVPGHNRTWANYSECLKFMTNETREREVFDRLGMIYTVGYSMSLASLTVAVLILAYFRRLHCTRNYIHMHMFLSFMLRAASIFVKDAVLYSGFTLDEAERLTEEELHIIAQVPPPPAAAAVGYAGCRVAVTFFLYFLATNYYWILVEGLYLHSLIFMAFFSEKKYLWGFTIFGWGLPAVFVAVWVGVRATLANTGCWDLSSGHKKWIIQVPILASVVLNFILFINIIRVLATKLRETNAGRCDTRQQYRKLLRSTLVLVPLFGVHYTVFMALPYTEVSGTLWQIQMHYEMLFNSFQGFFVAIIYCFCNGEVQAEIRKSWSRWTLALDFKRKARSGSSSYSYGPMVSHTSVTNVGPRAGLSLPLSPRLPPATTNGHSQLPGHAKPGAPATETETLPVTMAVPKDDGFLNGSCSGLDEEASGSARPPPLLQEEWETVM
Procedure: FIGS. 9A, 9B, and 9C constitute a series of graphs depicting cAMP responses in GR-35 cells expressing rat PTHR-1-WT. […] Data are means (±SEM) of n>4 experiments, each performed in duplicate.
as §1

Row | EC50 ([1]; read-out: cAMP EC50) [nM] | Molecule | Max [3] | cAMP (hPTHR-1) Max [1] | Max [1] | further results
1 | 0.65 | CC[C@H](C)[C@H](NC(=O)[C@H]1CCC[C@@H]1NC(=O)[C@H](CCCCN)NC(=O)CNC(=O)[C@H](CCCCN)NC(=O)[C@H](CC(=O)O)NC(=O)[C@H](Cc1cnc[nH]1)NC(=O)[C@H](CC(C)C)NC(=O)[C@H]1CCC[C@@H]1NC(=O)[C@H](CCC(N)=O)NC(=O)[C@H]1CCC[C@@H]1NC(=O)[C@H](CCC(=O)O)NC(=O)[C@H](CO)NC(=O)[C@@H](NC(=O)[C@H]1CCC[C@@H]1N)C(C)C)C(=O)N[C@@H](CCC(N)=O)C(=O)N[C@@H](CC(=O)O)C(=O)N[C@H]1CCC[C@@H]1C(=O)N[C@@H](CCCNC(=N)N)C(=O)N[C@@H](CCCNC(=N)N)C(=O)N[C@@H](CCCNC(=N)N)C(=O)N[C@H]1CNC[C@@H]1C(=O)N[C@@H](CC(C)C)C(=O)N[C@@H](CC(C)C)C(=O)N[C@@H](CCC(=O)O)C(=O)N[C@H]1CNC[C@@H]1C(=O)N[C@@H](CC(C)C)C(=O)N[C@@H](CC(C)C)C(=O)NC(C)(C)C(=O)N[C@H]1CCC[C@@H]1C(=O)N[C@@H](CC(C)C)C(=O)N[C@@H](Cc1cnc[nH]1)C(=O)N[C@H](C(=O)N[C@H]1CCC[C@@H]1C(N)=O)[C@@H](C)O [CycD6 BA058 ACPC(1,5,7), XVSEXQXLHDKGKXIQDXRRRZLLEZLLUXLHTX-NH2] ({ACPC(1S,2S)}-VSE[X12]Q[X12]LHDKGK[X12]IQD[X12]RRR[X13]LLE[X13]LL[Aib][X12]LHT-{NH(1S,2S-2-CONH2-cPent)}) | – | – | – | –
2 | – | XVUEXQXMHQ^hRAKWLNSMRRVEWLRKKLQDVHNF.-NH2 [M-X1,5,7-D6] | – | – | – | Fold PTH [2]: 9.7
3 | – | CC[C@H](C)[C@H](NC(=O)[C@H](CCC(=O)O)NC(=O)[C@H](CO)NC(=O)[C@@H](NC(=O)[C@@H](N)CO)C(C)C)C(=O)N[C@@H](CCC(N)=O)C(=O)N[C@@H](CC(C)C)C(=O)N[C@@H](CCSC)C(=O)N[C@@H](Cc1c[nH]cn1)C(=O)N[C@@H](CC(N)=O)C(=O)N[C@@H](CC(C)C)C(=O)NCC(=O)N[C@@H](CCCCN)C(=O)N[C@@H](Cc1c[nH]cn1)C(=O)N[C@@H](CC(C)C)C(=O)N[C@@H](CC(N)=O)C(=O)N[C@@H](CO)C(=O)N[C@@H](CCSC)C(=O)N[C@@H](CCC(=O)O)C(=O)N[C@@H](CCCNC(=N)N)C(=O)N[C@H](C(=O)N[C@@H](CCC(=O)O)C(=O)N[C@H](CC(=O)N[C@@H](CC(C)C)C(=O)N[C@@H](CCCNC(=N)N)C(=O)N[C@@H](CCCCN)C(=O)N[C@@H](CCCCN)CC(=O)N[C@@H](CC(C)C)C(=O)N[C@@H](CCC(N)=O)C(=O)N[C@@H](CC(=O)O)C(=O)N[C@H](CC(=O)N[C@@H](Cc1c[nH]cn1)C(=O)N[C@@H](CC(N)=O)C(=O)N[C@@H](Cc1ccccc1)C(N)=O)C(C)C)Cc1c[nH]c2ccccc12)C(C)C [A3] | 74 ± 101 luminescence counts per second × 10−3 | 1.07 | 232 ± 15 luminescence counts per second × 10^−3 | agonist activity at hPTHR-1 (cAMP response), in words ([1]; maximum cAMP response compared with PTH(1-34)): full agonists of hPTHR-1
4 | – | CC[C@H](C)[C@H](NC(=O)[C@H]1CCC[C@@H]1NC(=O)[C@H](CO)NC(=O)[C@@H](NC(=O)[C@@H](N)CO)C(C)C)C(=O)N[C@@H](CCC(N)=O)C(=O)N[C@@H](CC(C)C)C(=O)N[C@@H](CCSC)C(=O)N[C@@H](Cc1c[nH]cn1)C(=O)N[C@@H](CC(N)=O)C(=O)N[C@@H](CC(C)C)C(=O)NCC(=O)N[C@@H](CCCCN)C(=O)N[C@@H](Cc1c[nH]cn1)C(=O)N[C@@H](CC(C)C)C(=O)N[C@@H](CC(N)=O)C(=O)N[C@@H](CO)C(=O)N[C@@H](CCSC)C(=O)N[C@@H](CCC(=O)O)C(=O)N[C@@H](CCCNC(=N)N)C(=O)N[C@H](C(=O)N[C@@H](CCC(=O)O)C(=O)N[C@@H](Cc1c[nH]c2ccccc12)C(=O)N[C@@H](CC(C)C)C(=O)N[C@@H](CCCNC(=N)N)C(=O)N[C@@H](CCCCN)C(=O)N[C@@H](CCCCN)C(=O)N[C@@H](CC(C)C)C(=O)N[C@@H](CCC(N)=O)C(=O)N[C@@H](CC(=O)O)C(=O)N[C@H](C(=O)N[C@@H](Cc1c[nH]cn1)C(=O)N[C@@H](CC(N)=O)C(=O)N[C@@H](Cc1ccccc1)C(N)=O)C(C)C)C(C)C [ACPC(4)] (H-SVS[X12]IQLMHNLGKHLNSMERVEWLRKKLQDVHNF-NH2; N-terminus assumed) | – | – | – | hPTHR1 EC50, nM (Means ± SEM) ([1]; Table 8, cAMP-inducing potency, N-terminal modifications): No activity
5 | 0.26 | CC[C@H](C)[C@H](NC(=O)[C@H](CO)NC(=O)[C@H](CCCCN)NC(=O)CNC(=O)[C@H](CCCCN)NC(=O)[C@H](CC(=O)O)NC(=O)[C@H](Cc1c[nH]cn1)NC(=O)[C@H](CC(C)C)NC(=O)[C@H]1CCC[C@@H]1NC(=O)[C@H](CCC(N)=O)NC(=O)[C@H]1CCC[C@@H]1NC(=O)[C@H](CCC(=O)O)NC(=O)[C@H](CO)NC(=O)[C@@H](NC(=O)[C@H]1CCC[C@@H]1N)C(C)C)C(=O)N[C@@H](CCC(N)=O)C(=O)N[C@@H](CC(=O)O)C(=O)N[C@@H](CC(C)C)C(=O)N[C@@H](CCCNC(=N)N)C(=O)N[C@@H](CCCNC(=N)N)C(=O)N[C@@H](CCCNC(=N)N)C(=O)N[C@@H](CCC(=O)O)C(=O)N[C@@H](CC(C)C)C(=O)N[C@@H](CC(C)C)C(=O)N[C@@H](CCC(=O)O)C(=O)N[C@@H](CCCCN)C(=O)N[C@@H](CC(C)C)C(=O)N[C@@H](CC(C)C)C(=O)NC(C)(C)C(=O)N[C@@H](CCCCN)C(=O)N[C@@H](CC(C)C)C(=O)N[C@@H](Cc1c[nH]cn1)C(=O)N[C@H](C(=O)N[C@@H](C)C(N)=O)[C@@H](C)O [BA058 ACPC(1,5,7), XVSEXQXLHDKGKSIQDLRRRELLEKLLUKLHTA-NH2] ({ACPC(1S,2S)}-VSE[X12]Q[X12]LHDKGKSIQDLRRRELLEKLL[Aib]KLHTA-NH2; N-terminus assumed) | – | – | – | –
6 | – | CC[C@H](C)[C@H](NC(=O)[C@H](CCC(=O)O)NC(=O)[C@H](CO)NC(=O)[C@@H](NC(=O)[C@@H](N)CO)C(C)C)C(=O)N[C@@H](CCC(N)=O)C(=O)N[C@@H](CC(C)C)C(=O)N[C@@H](CCSC)C(=O)N[C@@H](Cc1c[nH]cn1)C(=O)N[C@@H](CC(N)=O)C(=O)N[C@@H](CC(C)C)C(=O)NCC(=O)N[C@@H](CCCCN)C(=O)N[C@@H](Cc1c[nH]cn1)C(=O)N[C@H](CC(=O)N[C@@H](CC(N)=O)C(=O)N[C@@H](CO)C(=O)N[C@@H](CCSC)C(=O)N[C@@H](CCC(=O)O)CC(=O)N[C@@H](CCCNC(=N)N)C(=O)N[C@H](C(=O)N[C@@H](CCC(=O)O)C(=O)N[C@H](CC(=O)N[C@@H](CC(C)C)C(=O)N[C@@H](CCCNC(=N)N)C(=O)N[C@@H](CCCCN)C(=O)N[C@@H](CCCCN)CC(=O)N[C@@H](CC(C)C)C(=O)N[C@@H](CCC(N)=O)C(=O)N[C@@H](CC(=O)O)C(=O)N[C@H](CC(=O)N[C@@H](Cc1c[nH]cn1)C(=O)N[C@@H](CC(N)=O)C(=O)N[C@@H](Cc1ccccc1)C(N)=O)C(C)C)Cc1c[nH]c2ccccc12)C(C)C)CC(C)C [A5] | 54 ± 26 luminescence counts per second × 10−3 | 1.12 | 244 ± 32 luminescence counts per second × 10^−3 | EC50 [1]: 1.66 nM
